Results published in ChEMBL document CHEMBL1156790, “Synthesis and structure-activity relationships of antitubercular 2-nitroimidazooxazines bearing heterocyclic side chains” (J Med Chem, 2010).
≈ marks a conversion by molar mass, not a printed value.

Assays:
[1] = system: Mycobacterium tuberculosis; experiment: Antimycobacterial activity against Mycobacterium tuberculosis H37Rv after 16 to 24 hrs by microplate alamar blue assay; assay type: functional
[2] = system: Mycobacterium tuberculosis; experiment: Antitubercular effect in Mycobacterium tuberculosis infected BALB/c mouse assessed as CFU reduction at 100 mg/kg, po administered 5 days a week for 3 weeks relative to PA-824; assay type: functional
Vero = experiment: Cytotoxicity against african green monkey Vero cells after 72 hrs by tetrazolium dye assay; assay type: cell-based; settings: Chlorocebus sabaeus
[3] = system: Mycobacterium tuberculosis; experiment: Antimycobacterial activity against Mycobacterium tuberculosis H37Rv expressing pFCA-luxAB after 10 days by luminescence-based low-oxygen recovery assay; assay type: functional; settings: 240 h
Liver microsomes = experiment: (§1) Metabolic stability in human liver microsomes after 1 hr at 37 degC; assay type: ADME, Microsome; settings: microsomes, 1 h
[4] = Thermodynamic solubility in water at pH 7.4 at; assay type: physicochemical; settings: for solubility thermodynamic: water
[5] = Metabolic stability in mouse liver microsomes after 1 hr at 37 degC; assay type: ADME, Microsome
[6] = as §1; assay type: ADME, Microsome; settings: liver microsomes, read-out: Stability

Row | Structure (SMILES) | MIC [1] [µM] | fold change (FC) [2] | IC50 (Vero) [µM] | MIC [3] [µM] | Stability (Liver microsomes) [%] | solubility thermodynamic [4] [µg/mL] | Stability ([5]; microsomes, 1 h) [%] | remaining at 1 h [6] [%] | solubility ([4]; buffer) [µg/mL] | remaining at 1 h ([5]; liver microsomes, read-out: Stability) [%]
1 | O=[N+]([O-])c1cn2c(n1)OC[C@@H](OCc1ccn(-c3ccc(OC(F)(F)F)cc3)n1)C2 | 0.05 (≈ 0.0213 µg/mL) | 41 | > 128 | 0.61 (≈ 0.259 µg/mL) | 87 | 23 (≈ 54.1 µM) | 67 | – | – | –
2 | Cn1nc(-c2ccc(OC(F)(F)F)cc2)cc1CO[C@@H]1COc2nc([N+](=O)[O-])cn2C1 | 0.06 (≈ 0.0264 µg/mL) | 12 | > 128 | 0.58 (≈ 0.255 µg/mL) | – | – | – | 86 | 0.88 (≈ 2 µM) | 81
3 | O=[N+]([O-])c1cn2c(n1)OC[C@@H](OCc1ccc(OC(F)(F)F)cc1)C2 [PRETOMANID] | – | – | > 128 | 2.6 (≈ 0.934 µg/mL) | – | 11 (≈ 30.6 µM) | – | – | – | –
